According to PubChem BioAssay (NCI):
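Dose response: 5 concentrations. Exposure: 48 h. Format: 96-well plates. Endpoint: linear interpolation; highest concentration if not reached. Definition used: TGI = concentration required for complete inhibition of growth.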

Tests used:
Test in all cases: inhibition of tumour cell growth, NCI panel, 48 h
786-0 renal = system: 786-0 renal
A498 renal = system: A498 renal
A549 NSCLC = system: A549 NSCLC
ACHN renal = system: ACHN renal
CAKI-1 renal = system: CAKI-1 renal
CCRF-CEM leukemia = system: CCRF-CEM leukemia
COLO 205 colon = system: COLO 205 colon
DLD-1 colon = system: DLD-1 colon
DMS 273 small cell lung = system: DMS 273 small cell lung
EKVX NSCLC = system: EKVX NSCLC
HCC-2998 colon = system: HCC-2998 colon
HCT-116 colon = system: HCT-116 colon
HCT-15 colon = system: HCT-15 colon
HL-60(TB) leukemia = system: HL-60(TB) leukemia
HOP-18 NSCLC = system: HOP-18 NSCLC
HOP-62 NSCLC = system: HOP-62 NSCLC
HOP-92 NSCLC = system: HOP-92 NSCLC
HT29 colon = system: HT29 colon
IGROV1 ovarian = system: IGROV1 ovarian
K-562 leukemia = system: K-562 leukemia
KM12 colon = system: KM12 colon
KM20L2 colon = system: KM20L2 colon
LOX IMVI melanoma = system: LOX IMVI melanoma
LXFL 529 NSCLC = system: LXFL 529 NSCLC
M14 melanoma = system: M14 melanoma
M19-MEL melanoma = system: M19-MEL melanoma
MALME-3M melanoma = system: MALME-3M melanoma
MOLT-4 leukemia = system: MOLT-4 leukemia
NCI-H226 lung = system: NCI-H226 lung
NCI-H23 lung = system: NCI-H23 lung
NCI-H460 lung = system: NCI-H460 lung
NCI-H522 lung = system: NCI-H522 lung
OVCAR-3 ovarian = system: OVCAR-3 ovarian
OVCAR-4 ovarian = system: OVCAR-4 ovarian
OVCAR-5 ovarian = system: OVCAR-5 ovarian
OVCAR-8 ovarian = system: OVCAR-8 ovarian
RPMI-8226 leukemia = system: RPMI-8226 leukemia
SF-295 CNS = system: SF-295 CNS
SF-539 CNS = system: SF-539 CNS
SK-MEL-2 melanoma = system: SK-MEL-2 melanoma
SK-MEL-5 melanoma = system: SK-MEL-5 melanoma
SK-OV-3 ovarian = system: SK-OV-3 ovarian
SN12C renal = system: SN12C renal
SNB-19 CNS = system: SNB-19 CNS
SNB-75 CNS = system: SNB-75 CNS
SR leukemia = system: SR leukemia
SW-620 colon = system: SW-620 colon
TK-10 renal = system: TK-10 renal
U251 CNS = system: U251 CNS
UACC-257 melanoma = system: UACC-257 melanoma
UACC-62 melanoma = system: UACC-62 melanoma
UO-31 renal = system: UO-31 renal
DMS 114 small cell lung = system: DMS 114 small cell lung
RXF 393 renal = system: RXF 393 renal
SF-268 CNS = system: SF-268 CNS
SK-MEL-28 melanoma = system: SK-MEL-28 melanoma
SNB-78 CNS = system: SNB-78 CNS
XF 498 CNS = system: XF 498 CNS

Measured: TGI

C=C1CCC2C(C)(CO)C(O)CCC2(C)C1C/C=C1/CCOC1=O (configuration not stated)
not listed: DMS 114 small cell lung | RXF 393 renal | SF-268 CNS | SK-MEL-28 melanoma | SNB-78 CNS | XF 498 CNS
> 100 µM: all other assays above

COc1ccc(OC(C)C(=O)O)c2c1CCCC2=O (configuration not stated)
not listed: CAKI-1 renal | HOP-18 NSCLC | HOP-92 NSCLC
> 100 µM: all other assays above
